Values joined by “and” are separate entries in the source; they are usually repeats but may differ in a detail not shown here. Equal values may be shown once.
How the values were obtained:
[1] = test system: DIO and db/db mice; assay: Glucose homeostasis and insulin sensitivity in DIO and db/db mice (Example 21); assay type: in vivo, mouse
Protocol: Animals were housed and bred according to standardized procedures (Argmann and Auwerx, 2006b). Age-matched male mice were used for all experiments. Genetically engineered mouse models (GEMMs), i.e., TGR5-Tg and TGR5^−/− mice, were generated as described in the Supplemental Data. […]; Research Diets) for at least 8 weeks, as mentioned in the text and figure legends. […] Mouse phenotyping experiments were performed according to EMPRESS protocols (see, for example, Empress (European Mouse Phenotyping Resource of Standardised Screening) website) and were aimed to assess food and water intake, body composition (Argmann et al., 2006a, Curr. Protoc. Mol. Biol. Chapter 29, Unit 29A, 23), energy expenditure (Argmann et al., 2006a, Curr. Protoc. Mol. Biol. Chapter 29, Unit 29A, 23), glucose and lipid homeostasis (Argmann et al., 2006b, Curr. Protoc. Mol. Biol. Chapter 29, Unit 29A, 22); Heikkinen et al., 2007, Curr. Protoc. Mol. Chapter. 29, Unit 29B, 23; Mataki et al., 2007, Mol. Cell. Biol. 27, 8330), and plasma biochemistry (Argmann and Auwerx, 2006a, Curr. Protoc. Mol. Biol. Chapter 29, Unit 29A, 22). Tissues and blood were collected and processed for histopathology, blood chemistry, and gene expression according to standardized procedures (Argmann and Auwerx, 2006a; Feige et al., 2008b; Mark et al., 2007; Watanabe et al., 2006). Hyperinsulinemic euglycemic clamp studies were performed as described (Feige et al., 2008b), with minor modifications including a change in the initial insulin bolus (30 mU/kg) and insulin infusion rate (10 mU/min/kg). Plasma GLP-1 levels were measured by ELISA (Millipore) on blood collected by retro-orbital puncture. […].
To further characterize the impact of compound Ih3e on glucose homeostasis and insulin sensitivity, a hyperinsulinemic euglycemic glucose clamp was performed on these DIO mice. […]. These effects correlated with normalization in the expression of key genes involved in hepatic glucose homeostasis (FIG. 21G).

[2] = in vitro; details: human, s9
[3] = target: T1, LXRα (Homo sapiens, UniProt Q13133); assay: LXR coactivator recruitment (alphascreen); assay type: biochemical
T1 sequence (Q13133 1-447): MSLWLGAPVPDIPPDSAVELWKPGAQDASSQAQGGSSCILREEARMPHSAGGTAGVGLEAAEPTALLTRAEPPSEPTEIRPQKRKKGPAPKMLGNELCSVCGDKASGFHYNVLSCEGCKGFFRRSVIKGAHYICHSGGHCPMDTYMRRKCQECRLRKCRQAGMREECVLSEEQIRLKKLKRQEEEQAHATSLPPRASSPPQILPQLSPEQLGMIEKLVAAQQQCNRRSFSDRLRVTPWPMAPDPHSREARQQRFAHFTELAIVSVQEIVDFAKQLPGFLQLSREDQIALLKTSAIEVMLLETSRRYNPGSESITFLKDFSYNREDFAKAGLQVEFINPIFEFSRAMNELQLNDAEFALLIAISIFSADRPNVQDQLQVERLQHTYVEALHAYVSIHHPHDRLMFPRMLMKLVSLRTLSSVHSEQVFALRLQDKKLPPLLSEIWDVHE

[4] = Octanol/water partition coefficient (shake-flask); assay type: physicochemical; details: pH 8
[5] = Biliary secretion and metabolism in bile fistula rat, id and iv infusion; details: for Conc. / Secretion: rat bile; for fraction unbound at 4 h: rat, in vivo, 1 μmol/kg/min
[6] = test system: NCI-H716 cells; assay: NCI-H716 cell experiments (ATP, intracellular calcium, GLP-1 release); assay type: cell-based, human
[7] = in vitro; details: human, HepG2 cells
[8] = target: T2, CAR (Homo sapiens, UniProt Q14994); assay: CAR coactivator recruitment (Lanthascreen); assay type: biochemical; details: read-out: CAR Activation EC50
T2 construct: purchased Invitrogen
T2 sequence (Q14994 109-352 limits assumed): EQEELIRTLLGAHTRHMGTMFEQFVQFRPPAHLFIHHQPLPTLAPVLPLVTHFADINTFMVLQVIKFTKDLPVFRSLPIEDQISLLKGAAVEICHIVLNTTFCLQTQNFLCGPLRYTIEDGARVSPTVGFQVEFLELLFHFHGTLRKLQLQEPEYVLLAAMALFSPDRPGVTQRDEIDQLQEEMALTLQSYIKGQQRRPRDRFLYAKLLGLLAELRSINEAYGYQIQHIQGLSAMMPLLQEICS
Protocol: CAR: Coactivator Recruitment (Lanthascreen)
Lanthascreen assay (Invitrogen) was used for nulear receptor selectivity assay. The kit uses a terbium-labeled anti-GST antibody, a fluorescein-labeled coactivator peptide, and a NR ligand-binding domain that is tagged with glutathione-S-transferase (GST) in a homogenous mix-and-read assay format. […] Following 1 hour incubation in the dark, TR-FRET measurements were made in the Envision. […] The data was analyzed using GraphPad Prism using the sigmoidal curve equation with variable slope to obtain EC50 values.

[9] = Choleretic effect (bile flow) in bile fistula rat, id and iv infusion; assay type: in vivo; details: for SV0: maximum bile secretion rate: 1 (μmol/min)/kg bw over 1 h
[10] = duodenal infusion 75-135 min, time 90 min
[11] = duodenal infusion 75-135 min, time 120 min
[12] = duodenal infusion 75-135 min, time 150 min
[13] = duodenal infusion 75-135 min, time 180 min
[14] = duodenal infusion 75-135 min, time 210 min
[15] = duodenal infusion 75-135 min, time 240 min
[16] = duodenal infusion 75-135 min, time 270 min
[17] = duodenal infusion 75-135 min, time 300 min
[18] = femoral infusion 75-135 min, time 90 min
[19] = femoral infusion 75-135 min, time 120 min
[20] = femoral infusion 75-135 min, time 150 min
[21] = femoral infusion 75-135 min, time 180 min
[22] = femoral infusion 75-135 min, time 210 min
[23] = femoral infusion 75-135 min, time 240 min
[24] = femoral infusion 75-135 min, time 270 min

SMILES: CC[C@H]1[C@@H](O)[C@@H]2[C@H](C[C@H](O)[C@]3(C)[C@@H]([C@H](C)C[C@H](C)C(=O)O)CC[C@@H]23)[C@@]2(C)CC[C@@H](O)C[C@@H]12 [Ih3e, 6α-ethyl-(23S)-methyl-3α,7α,12α trihydroxy-5β-cholan-24-oic acid]
- fasting glucose and insulin levels ([1]; DIO and db/db mice): decreased
- glucose-stimulated insulin secretion profile ([1]; DIO and db/db mice): improvement
- glucose tolerance after an oral challenge with glucose ([1]; DIO and db/db mice, 30 mkd): robustly improved glucose tolerance
- glucose infusion rate required to maintain euglycemia ([1]; DIO mice, hyperinsulinemic euglycemic clamp): virtually identical to that observed in CD-fed control mice
- body weight ([1]; HF-fed C57BL6/J mice, 30 mg/kg/d for 8 weeks): 32.26 ± 0.95 g
- hepatic glucose production, glucose disposal rate, suppression of glucose production by insulin ([1]; HF-fed mice, clamp): normalized these parameters to the values observed in CD-fed mice
- insulin-stimulated 14C-deoxyglucose uptake ([1]; clamp): reduced insulin resistance in liver and muscle
- expression of key genes involved in hepatic glucose homeostasis ([1]; mouse, in vivo): normalization
- half-life [2]: 12.1 h
- LXRα Activation EC50 [3]: No activity
- LogPA- (1-octanol-water partition coefficient, ionized species) [4]: 1.4 and 1.44
- compound secreted into the bile in its unconjugated form ([5]; after intravenous or intraduodenal infusion): more than 90%
- biliary secretion ([5]; after iv administration): efficient
- recovery in bile after id administration ([5]; id vs iv): slightly lower than the recovery after iv administration
- Conc. [5, 10]: 7 µM
- Secretion [5, 10]: 0.0003 µmol/kg/min
- Conc. [5, 11]: 690 µM
- Secretion [5, 11]: 0.057 µmol/kg/min
- Conc. [5, 12]: 1880 µM
- Secretion [5, 12]: 0.167 µmol/kg/min
- Conc. [5, 13]: 1290 µM
- Secretion [5, 13]: 0.150 µmol/kg/min
- Conc. [5, 14]: 790 µM
- Secretion [5, 14]: 0.077 µmol/kg/min
- Conc. [5, 15]: 390 µM
- Secretion [5, 15]: 0.033 µmol/kg/min
- Conc. [5, 16]: 270 µM
- Secretion [5, 16]: 0.026 µmol/kg/min
- Conc. [5, 17]: 200 µM
- Secretion [5, 17]: 0.015 µmol/kg/min
- Conc. [5, 18]: 1900 µM
- Secretion [5, 18]: 0.1 µmol/kg/min
- Conc. [5, 19]: 3100 µM
- Secretion [5, 19]: 0.23 µmol/kg/min
- Conc. [5, 20]: 3400 µM
- Secretion [5, 20]: 0.31 µmol/kg/min
- Conc. [5, 21]: 2300 µM
- Secretion [5, 21]: 0.2 µmol/kg/min
- Conc. [5, 22]: 1060 µM
- Secretion [5, 22]: 0.105 µmol/kg/min
- Conc. [5, 23]: 550 µM
- Secretion [5, 23]: 0.049 µmol/kg/min
- Conc. [5, 24]: 270 µM
- Secretion [5, 24]: 0.018 µmol/kg/min
- fraction unbound at 4 h [5]: 0.94 ± 0.06
- fraction unbound at 4 h ([5]; iv): 0.93
- ATP production ([6]; NCI-H716): increased ATP production in a cAMP-dependent manner
- calcium influx ([6]; NCI-H716): robustly increased calcium influx
- GLP-1 release ([6]; NCI-H716, with glucose): rise in GLP-1 release
- EC50 at 4 h [7]: > 1000 µM
- EC50 [8]: > 250 µM
- duration of increased bile flow ([9]; duodenal infusion): at least 3 hours
- maximum bile flow rate ([9]; duodenal infusion 1 μmol/kg/min, 1 hour): about 120 μL/min/kg
- SV0: maximum bile secretion rate ([9]; id infusion): 112 ± 12 (μL/min)/kg bw
- bile flow rate ([9]; iv (femoral) infusion): significantly increased the bile flow rate
- SV0: maximum bile secretion rate ([9]; iv infusion): (131 ± 11) (μL/min)/kg bw
